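Five compound concentrations were applied to cells in 96-well plates for 48 hours; endpoints were derived by simple linear interpolation of the resulting dose-response curve. Definition used: TGI = concentration required for complete inhibition of growth.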
Columns and labels:
Test in all cases: NCI tumour cell line growth inhibition, 48 h
MDA-MB-435 = system: MDA-MB-435
SR leukemia = system: SR leukemia
MALME-3M melanoma = system: MALME-3M melanoma
A498 renal = system: A498 renal
MDA-MB-231 breast = system: MDA-MB-231 breast
U251 CNS = system: U251 CNS
K-562 leukemia = system: K-562 leukemia
SNB-75 CNS = system: SNB-75 CNS
CAKI-1 renal = system: CAKI-1 renal
M14 melanoma = system: M14 melanoma
HOP-62 NSCLC = system: HOP-62 NSCLC
SK-MEL-28 melanoma = system: SK-MEL-28 melanoma
SK-MEL-2 melanoma = system: SK-MEL-2 melanoma
MDA-N = system: MDA-N
IGROV1 ovarian = system: IGROV1 ovarian
SW-620 colon = system: SW-620 colon
OVCAR-3 ovarian = system: OVCAR-3 ovarian
SNB-19 CNS = system: SNB-19 CNS
NCI-H522 lung = system: NCI-H522 lung
EKVX NSCLC = system: EKVX NSCLC
HOP-92 NSCLC = system: HOP-92 NSCLC
HCT-116 colon = system: HCT-116 colon
SN12C renal = system: SN12C renal
A549 NSCLC = system: A549 NSCLC
SF-295 CNS = system: SF-295 CNS
UACC-257 melanoma = system: UACC-257 melanoma
DU-145 prostate = system: DU-145 prostate
HL-60(TB) leukemia = system: HL-60(TB) leukemia
T-47D breast = system: T-47D breast
NCI-H226 lung = system: NCI-H226 lung
LOX IMVI melanoma = system: LOX IMVI melanoma
COLO 205 colon = system: COLO 205 colon
HS 578T breast = system: HS 578T breast
UACC-62 melanoma = system: UACC-62 melanoma
SF-539 CNS = system: SF-539 CNS
MOLT-4 leukemia = system: MOLT-4 leukemia
RXF 393 renal = system: RXF 393 renal
NCI/ADR-RES ovarian = system: NCI/ADR-RES ovarian
UO-31 renal = system: UO-31 renal
HT29 colon = system: HT29 colon
CCRF-CEM leukemia = system: CCRF-CEM leukemia
RPMI-8226 leukemia = system: RPMI-8226 leukemia
OVCAR-8 ovarian = system: OVCAR-8 ovarian
SK-MEL-5 melanoma = system: SK-MEL-5 melanoma
BT-549 breast = system: BT-549 breast
PC-3 prostate = system: PC-3 prostate
NCI-H23 lung = system: NCI-H23 lung
HCC-2998 colon = system: HCC-2998 colon
SK-OV-3 ovarian = system: SK-OV-3 ovarian
HCT-15 colon = system: HCT-15 colon
MCF7 breast = system: MCF7 breast
OVCAR-5 ovarian = system: OVCAR-5 ovarian
OVCAR-4 ovarian = system: OVCAR-4 ovarian
NCI-H460 lung = system: NCI-H460 lung
TK-10 renal = system: TK-10 renal
786-0 renal = system: 786-0 renal
SF-268 CNS = system: SF-268 CNS
KM12 colon = system: KM12 colon
ACHN renal = system: ACHN renal

## Cc1nnc2cc(C(=O)O)c3ccccc3n2c1=O
MDA-MB-435
  TGI: > 10 µM
SR leukemia
  TGI: > 10 µM
MALME-3M melanoma
  TGI: > 10 µM
A498 renal
  TGI: > 10 µM
MDA-MB-231 breast
  TGI: > 10 µM
U251 CNS
  TGI: > 10 µM
K-562 leukemia
  TGI: > 10 µM
SNB-75 CNS
  TGI: > 10 µM
CAKI-1 renal
  TGI: > 10 µM
M14 melanoma
  TGI: > 10 µM
HOP-62 NSCLC
  TGI: > 10 µM
SK-MEL-28 melanoma
  TGI: > 10 µM
SK-MEL-2 melanoma
  TGI: > 10 µM
MDA-N
  TGI: > 10 µM
IGROV1 ovarian
  TGI: > 10 µM
SW-620 colon
  TGI: > 10 µM
OVCAR-3 ovarian
  TGI: > 10 µM
SNB-19 CNS
  TGI: > 10 µM
NCI-H522 lung
  TGI: > 10 µM
EKVX NSCLC
  TGI: > 10 µM
HOP-92 NSCLC
  TGI: > 10 µM
HCT-116 colon
  TGI: > 10 µM
SN12C renal
  TGI: > 10 µM
A549 NSCLC
  TGI: > 10 µM
SF-295 CNS
  TGI: > 10 µM
UACC-257 melanoma
  TGI: > 10 µM
DU-145 prostate
  TGI: > 10 µM
HL-60(TB) leukemia
  TGI: > 10 µM
T-47D breast
  TGI: > 10 µM
NCI-H226 lung
  TGI: > 10 µM
LOX IMVI melanoma
  TGI: > 10 µM
COLO 205 colon
  TGI: > 10 µM
HS 578T breast
  TGI: > 10 µM
UACC-62 melanoma
  TGI: > 10 µM
SF-539 CNS
  TGI: > 10 µM
MOLT-4 leukemia
  TGI: > 10 µM
RXF 393 renal
  TGI: > 10 µM
NCI/ADR-RES ovarian
  TGI: > 10 µM
UO-31 renal
  TGI: > 10 µM
HT29 colon
  TGI: > 10 µM
CCRF-CEM leukemia
  TGI: > 10 µM
RPMI-8226 leukemia
  TGI: > 10 µM
OVCAR-8 ovarian
  TGI: > 10 µM
SK-MEL-5 melanoma
  TGI: > 10 µM
BT-549 breast
  TGI: > 10 µM
PC-3 prostate
  TGI: > 10 µM
NCI-H23 lung
  TGI: > 10 µM
HCC-2998 colon
  TGI: > 10 µM
SK-OV-3 ovarian
  TGI: > 10 µM
HCT-15 colon
  TGI: > 10 µM
MCF7 breast
  TGI: > 10 µM
OVCAR-5 ovarian
  TGI: > 10 µM
OVCAR-4 ovarian
  TGI: > 10 µM
NCI-H460 lung
  TGI: > 10 µM
TK-10 renal
  TGI: > 10 µM
786-0 renal
  TGI: > 10 µM
SF-268 CNS
  TGI: > 10 µM

## CCOC(=O)c1nc2c3c(ncn2n1)Oc1c(c(-c2ccccc2)nn1-c1ccccc1)C3c1ccc(Cl)cc1 (stereo not drawn)
MDA-MB-435
  TGI: > 100 µM
SR leukemia
  TGI: > 100 µM
MALME-3M melanoma
  TGI: > 100 µM
A498 renal
  TGI: > 100 µM
MDA-MB-231 breast
  TGI: > 100 µM
U251 CNS
  TGI: > 100 µM
K-562 leukemia
  TGI: > 100 µM
SNB-75 CNS
  TGI: > 100 µM
CAKI-1 renal
  TGI: > 100 µM
M14 melanoma
  TGI: > 100 µM
HOP-62 NSCLC
  TGI: > 100 µM
SK-MEL-28 melanoma
  TGI: > 100 µM
SK-MEL-2 melanoma
  TGI: > 100 µM
MDA-N
  TGI: > 100 µM
SW-620 colon
  TGI: > 100 µM
OVCAR-3 ovarian
  TGI: > 100 µM
SNB-19 CNS
  TGI: > 100 µM
NCI-H522 lung
  TGI: > 100 µM
HOP-92 NSCLC
  TGI: > 100 µM
HCT-116 colon
  TGI: > 100 µM
SN12C renal
  TGI: > 100 µM
A549 NSCLC
  TGI: > 100 µM
SF-295 CNS
  TGI: > 100 µM
UACC-257 melanoma
  TGI: > 100 µM
DU-145 prostate
  TGI: > 100 µM
HL-60(TB) leukemia
  TGI: > 100 µM
T-47D breast
  TGI: > 100 µM
NCI-H226 lung
  TGI: > 100 µM
LOX IMVI melanoma
  TGI: > 100 µM
COLO 205 colon
  TGI: > 100 µM
HS 578T breast
  TGI: > 100 µM
UACC-62 melanoma
  TGI: > 100 µM
SF-539 CNS
  TGI: > 100 µM
RXF 393 renal
  TGI: > 100 µM
NCI/ADR-RES ovarian
  TGI: > 100 µM
UO-31 renal
  TGI: > 100 µM
HT29 colon
  TGI: > 100 µM
CCRF-CEM leukemia
  TGI: > 100 µM
RPMI-8226 leukemia
  TGI: > 100 µM
OVCAR-8 ovarian
  TGI: > 100 µM
SK-MEL-5 melanoma
  TGI: > 100 µM
BT-549 breast
  TGI: > 100 µM
PC-3 prostate
  TGI: > 100 µM
KM12 colon
  TGI: > 100 µM
ACHN renal
  TGI: > 100 µM
NCI-H23 lung
  TGI: > 100 µM
HCC-2998 colon
  TGI: > 100 µM
SK-OV-3 ovarian
  TGI: > 100 µM
HCT-15 colon
  TGI: > 100 µM
MCF7 breast
  TGI: > 100 µM
OVCAR-5 ovarian
  TGI: > 100 µM
OVCAR-4 ovarian
  TGI: > 100 µM
NCI-H460 lung
  TGI: > 100 µM
TK-10 renal
  TGI: > 100 µM
786-0 renal
  TGI: > 100 µM
SF-268 CNS
  TGI: > 100 µM
